The supplement of paper PMC11061612

Assays:
Assay in all cases: combination Emax (second highest fraction inhibited in the dose matrix, 72 h); higher = more inhibition; extreme values may be limits of the assay
[1] = test system: TE-8 (Esophageal Squamous Cell Carcinoma)
In short: (§1)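 Bliss excess equals the observed combination effect minus the expected value EA + EB − EA·EB, where EA and EB are the effects of each agent alone. Combination Emax is the second-highest inhibition within the matrix. Inhibition was scaled from CellTiter-Glo 2.0 luminescence, with 0 set by vehicle wells and 1 by blank wells, after 72 hours of two-drug dosing of cells plated in 1536-well plates.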

[2] = test system: KE-37 (T-Lymphoblastic Leukemia)
In short: as §1

[3] = test system: MFE-280 (Endometrial Carcinoma)
In short: as §1

[4] = test system: L-1236 (Hodgkin's Lymphoma)
In short: as §1

[5] = test system: CAL-62 (Thyroid Gland Carcinoma)
In short: as §1

[6] = test system: GP5d (Colorectal Carcinoma)
In short: as §1

[7] = test system: HEC-1 (Endometrial Carcinoma)
In short: as §1

[8] = test system: NCI-H446 (Small Cell Lung Carcinoma)
In short: as §1

[9] = test system: SK-PN-DW (Other Solid Carcinomas)
In short: as §1

[10] = test system: VAL (B-Cell Non-Hodgkin's Lymphoma)
In short: as §1

[11] = test system: SF539 (Glioblastoma)
In short: as §1

[12] = test system: LK-2 (Squamous Cell Lung Carcinoma)
In short: as §1

[13] = test system: LN-229 (Glioblastoma)
In short: as §1

[14] = test system: OVMIU (Ovarian Carcinoma)
In short: as §1

[15] = test system: LXF-289 (Lung Adenocarcinoma)
In short: as §1

[16] = test system: PANC-03-27 (Pancreatic Carcinoma)
In short: as §1

[17] = test system: SF268 (Low Grade Glioma)
In short: as §1

[18] = test system: IST-MES1 (Mesothelioma)
In short: as §1

[19] = test system: OPM-2 (Plasma Cell Myeloma)
In short: as §1

[20] = test system: GB-1 (Glioblastoma)
In short: as §1

Compound	combination Emax [1]	combination Emax [2]	combination Emax [3]	combination Emax [4]	combination Emax [5]	combination Emax [6]	combination Emax [7]	combination Emax [8]	combination Emax [9]	combination Emax [10]	combination Emax [11]	combination Emax [12]	combination Emax [13]	combination Emax [14]	combination Emax [15]	combination Emax [16]	combination Emax [17]	combination Emax [18]	combination Emax [19]	combination Emax [20]
CCN(CCO)CCCOc1ccc2c(Nc3cc(CC(=O)Nc4cccc(F)c4)[nH]n3)ncnc2c1 [AZD2811] + C=CCn1c(=O)c2cnc(Nc3ccc(N4CCN(C)CC4)cc3)nc2n1-c1cccc(C(C)(C)O)n1 [AZD1775] (first compound max 1 µM, partner max 1 µM)	0.781	1	0.521	0.74	0.787	0.735	0.141	0.87	0.899	0.844	1	0.887	0.218	0.463	0.573	0.899	0.245	0.27	0.809	0.332
CCN(CCO)CCCOc1ccc2c(Nc3cc(CC(=O)Nc4cccc(F)c4)[nH]n3)ncnc2c1 [AZD2811] + C[C@@H]1COCCN1C2=NC(=NC(=C2)C3(CC3)[S@](=N)(=O)C)C4=C5C=CNC5=NC=C4 [AZD6738] (first compound max 1 µM, 7x7, partner max 10 µM)	0.781	1	0.436	0.595	0.741	0.845	0.212	0.869	0.947	0.877	0.955	0.698	0.562	0.457	0.516	0.837	0.381	0.345	0.71	0.366
CCN(CCO)CCCOc1ccc2c(Nc3cc(CC(=O)Nc4cccc(F)c4)[nH]n3)ncnc2c1 [AZD2811] + O=C(c1cc(Cc2n[nH]c(=O)c3ccccc23)ccc1F)N1CCN(C(=O)C2CC2)CC1 [Olaparib] (first compound max 1 µM, 7x7, partner max 10 µM)	0.335	0.998	0.339	0.158	0.277	0.516	0.0832	0.81	0.689	0.831	0.502	0.765	0.167	0.295	0.555	0.379	0.178	0.29	0.363	0.194
CN(CCO)CC[C@H](CSc1ccccc1)Nc1ccc(S(=O)(=O)NC(=O)c2ccc(N3CCC([C@@H](O)c4ccccc4-c4ccc(Cl)cc4)CC3)cc2)cc1S(=O)(=O)C(F)(F)F [AZD4320] + C1CN(CCC1(C(=O)N[C@@H](CCO)C2=CC=C(C=C2)Cl)N)C3=NC=NC4=C3C=CN4 [Capivasertib] (first compound max 1 µM, 7x7, partner max 3 µM)	0.349	1	0.88	0.965	0.152	0.72	0.295	0.78	0.482	1	0.461	0.655	0	0.876	0.173	0.25	0.211	0.0905	0.955	0.117
CN(CCO)CC[C@H](CSc1ccccc1)Nc1ccc(S(=O)(=O)NC(=O)c2ccc(N3CCC([C@@H](O)c4ccccc4-c4ccc(Cl)cc4)CC3)cc2)cc1S(=O)(=O)C(F)(F)F [AZD4320] + C=CCn1c(=O)c2cnc(Nc3ccc(N4CCN(C)CC4)cc3)nc2n1-c1cccc(C(C)(C)O)n1 [AZD1775] (first compound max 1 µM, partner max 1 µM)	0.932	1	0.953	1	0.878	0.782	0.456	0.963	0.898	1	0.978	0.992	0.428	0.976	0.638	0.985	0.587	0.461	0.955	0.223
CN(CCO)CC[C@H](CSc1ccccc1)Nc1ccc(S(=O)(=O)NC(=O)c2ccc(N3CCC([C@@H](O)c4ccccc4-c4ccc(Cl)cc4)CC3)cc2)cc1S(=O)(=O)C(F)(F)F [AZD4320] + CCN(CCO)CCCOc1ccc2c(Nc3cc(CC(=O)Nc4cccc(F)c4)[nH]n3)ncnc2c1 [AZD2811] (first compound max 1 µM, 7x7, partner max 1 µM)	0.583	1	0.888	0.961	0.488	0.566	0.494	0.991	0.719	1	0.584	0.967	0.185	0.802	0.471	0.638	0.519	0.213	0.693	0.117
CN(CCO)CC[C@H](CSc1ccccc1)Nc1ccc(S(=O)(=O)NC(=O)c2ccc(N3CCC([C@@H](O)c4ccccc4-c4ccc(Cl)cc4)CC3)cc2)cc1S(=O)(=O)C(F)(F)F [AZD4320] + CN(C)CCCOc1ccc(-c2ccc3ncc4c(c3c2)n(C2CCOCC2)c(=O)n4C)cn1 [AZD0156] (first compound max 1 µM, 7x7, partner max 1 µM)	0.181	1	0.891	0.992	0.228	0.323	0.372	0.663	0.326	1	0.27	0.712	0.142	0.771	0.182	0.33	0.291	0.104	0.687	0.0923
CN(CCO)CC[C@H](CSc1ccccc1)Nc1ccc(S(=O)(=O)NC(=O)c2ccc(N3CCC([C@@H](O)c4ccccc4-c4ccc(Cl)cc4)CC3)cc2)cc1S(=O)(=O)C(F)(F)F [AZD4320] + C[C@@H]1COCCN1C2=NC(=NC(=C2)C3(CC3)[S@](=N)(=O)C)C4=C5C=CNC5=NC=C4 [AZD6738] (first compound max 1 µM, 7x7, partner max 10 µM)	0.799	1	0.88	0.992	0.936	0.859	0.613	0.941	0.947	1	0.959	0.769	0.797	0.824	0.689	0.926	0.78	0.296	0.927	0.55
CN(CCO)CC[C@H](CSc1ccccc1)Nc1ccc(S(=O)(=O)NC(=O)c2ccc(N3CCC([C@@H](O)c4ccccc4-c4ccc(Cl)cc4)CC3)cc2)cc1S(=O)(=O)C(F)(F)F [AZD4320] + C[C@@H](Nc1cc(F)cc(F)c1)c1cc(C(=O)N(C)C)cc2c(=O)cc(N3CCOCC3)oc12 [AZD8186] (first compound max 1 µM, 7x7, partner max 3 µM)	0.463	1	0.864	0.981	0.925	0.644	0.392	0.811	0.757	1	0.373	0.794	0.389	0.534	0.348	0.564	0.66	0.325	0.589	0.548
CN(CCO)CC[C@H](CSc1ccccc1)Nc1ccc(S(=O)(=O)NC(=O)c2ccc(N3CCC([C@@H](O)c4ccccc4-c4ccc(Cl)cc4)CC3)cc2)cc1S(=O)(=O)C(F)(F)F [AZD4320] + Cc1cc2ncnn2cc1Nc1ncc2c(n1)n(C1CCOCC1)c(=O)n2C [AZD7648] (first compound max 1 µM, 7x7, partner max 10 µM)	0.193	1	0.774	0.958	0.26	0.295	0.337	0.699	0.413	1	0.214	0.746	0.0793	0.847	0.216	0.177	0.164	0.113	0.71	0.17
COc1nnc2ccc(N3CCC(c4ccc(OCCN5CCN(C)C(=O)[C@H]5C)cc4)CC3)nn12 [AZD5153] + C=CCn1c(=O)c2cnc(Nc3ccc(N4CCN(C)CC4)cc3)nc2n1-c1cccc(C(C)(C)O)n1 [AZD1775] (first compound max 1 µM, partner max 1 µM)	0.654	0.978	0.383	0.999	0.79	0.848	0.827	0.962	0.762	0.792	0.944	0.929	0.431	0.86	0.813	0.604	0.637	0.576	1	0.641
COc1nnc2ccc(N3CCC(c4ccc(OCCN5CCN(C)C(=O)[C@H]5C)cc4)CC3)nn12 [AZD5153] + CC1(C)CCC(CN2CCN(c3ccc(C(=O)NS(=O)(=O)c4ccc(NCC5CCOCC5)c([N+](=O)[O-])c4)c(Oc4cnc5[nH]ccc5c4)c3)CC2)=C(c2ccc(Cl)cc2)C1 [Venetoclax] (first compound max 1 µM, 7x7, partner max 1 µM)	0.491	0.7	0.38	0.997	0.753	0.682	0.602	0.858	0.482	0.996	0.604	0.396	0.309	0.666	0.646	0.255	0.462	0.591	1	0.256
